Data reported in patent EP3046573B1, “AMYLIN ANALOGUES” (Zealand Pharma A/S, priority 2013, dated 2015).
Numbered stars: 1 amine (or outer) side, 2 acyl side, 3 side chain; on linkers, the order of the positions; unused ones are H or OH. Bridge positions count the residues as written; N and C are the ends. Square brackets hold non-standard residues; d marks the D form. Peptide text beside a SMILES is read from it. * marks the point of attachment. C20 diacid = O=C(O)CCCCCCCCCCCCCCCCCCC(=O)*; γGlu = O=C(O)[C@H](CCC(=O)[*:2])N[*:1]; NMeY = CN[C@@H](Cc1ccc(O)cc1)C(=O)O; NMeI = CC[C@H](C)[C@H](NC)C(=O)O; Sar = CNCC(=O)O

Tests used:
[1] = Assessment of chemical stability: normalized purity by RP-HPLC after incubation at 40 °C; format: physicochemical; settings: normalized purity (T=0 set to 100), 0.2 mg/ml
Procedure: Samples of each test peptide were dissolved in MilliQ™ water, and the pH of the solution was adjusted to pH 4, pH 7.5 or pH 9, respectively, using either HCI or NaOH. The final peptide concentration was 0.2 mg/ml. Samples were placed in glass vials and incubated at 40 °C. The samples were analyzed by RP-HPLC on a C8 column with gradient elution using an ammonium formate/water eluent system, or on a C18 column with gradient elution using a trifluoroacetic acid/water eluent system. The area-percentage (area-%) of the main peak after incubation time T = t (relative to time T = 0) was determined by UV spectroscopy at 220 nm.
The purity was first determined as follows: Purity(area−%) = (area of main peak/total area of all peaks) × 100. [formula]
The purity was then normalized between time points by setting purity at time 0 (T=0) to 100 for each pH value for a given peptide, as follows: Normalised area−%at time t(T = t) = [area−%(T = t)/area−%(T = 0)] × 100. [formula]
The normalized purity values in Table 2 were determined after 7 days of incubation. Table 2. EC50, chemical stability and fibrillation data for compounds of the invention

Sprague Dawley (SD) rats = assay: Acute food intake and body weight in normal Sprague Dawley rats; format: in vivo; settings: vehicle-corrected, dose 30 nmol/kg sc, once
Procedure: Sprague Dawley (SD) rats were obtained from Taconic A/S, Denmark. The animals arrived at least 7 days before the study start to allow acclimatization to experimental conditions. From arrival and throughout the study, the rats were housed in groups of 2 (n = 2) in a light-, temperature- and humidity-controlled room (reversed 12/12 h light/dark cycle: lights turned off during day-time and on during night-time; temperature 20-22°C; relative humidity 50-80%). Animals had access ad libitum to food (Altromin™ 1324, Brogaarden A/S, Gentofte, Denmark) and water (domestic quality tap water with citric acid added to pH ∼ 3.6) during the entire study. Stratification of rats was based on body weight (BW) on a cage-by-cage basis; mean BWs per cage were used as the basis for pairing four cages together in a group (n = 8 per group). A vehicle group and positive control group were included in each set of tests. Rats were dosed subcutaneously (sc) once in the morning immediately before turning off the lights, using a body weight-corrected dose of peptide (30 nmol/kg). Dosing volume was 5 ml/kg. Food intake was recorded manually at t = 0 (pre-dose) and at t = 4, 7, 10, 24, 48, 72 and 96 hours after dosing. Body weight was measured daily.
Statistical analyses on body weight were performed using GraphPad™ Prism version 5. The measured parameters were compared using unpaired t tests. Differences were considered statistically significant at p < 0.05. Data are means ± SEM; n =8.

[2] = Solubility assessment (turbidity absorbance at 325 nm); format: physicochemical; settings: stock 2 mg/ml diluted 1:1, ambient temperature (typically 25°C), n=1
In short: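 Turbidimetric screen across pH 4.0–7.5 in 100 mM acetate, histidine and phosphate buffers. A 2 mg/ml peptide stock (pH 2.5) was diluted 1:1 into each, then A325 measured at ambient temperature; values ≤ 0.02 AU denoted solubility of 1 mg/ml or more.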

[3] = molecular target: T1, human calcitonin receptor (hCTR2) (Homo sapiens, UniProt P30988); assay: hCTR2 assay: induction of cAMP (AlphaScreen cAMP Assay kit) in COS7 cells expressing hCTR2; format: cell-based
T1 construct: expressed in transfected cells
T1 sequence (P30988 25-474): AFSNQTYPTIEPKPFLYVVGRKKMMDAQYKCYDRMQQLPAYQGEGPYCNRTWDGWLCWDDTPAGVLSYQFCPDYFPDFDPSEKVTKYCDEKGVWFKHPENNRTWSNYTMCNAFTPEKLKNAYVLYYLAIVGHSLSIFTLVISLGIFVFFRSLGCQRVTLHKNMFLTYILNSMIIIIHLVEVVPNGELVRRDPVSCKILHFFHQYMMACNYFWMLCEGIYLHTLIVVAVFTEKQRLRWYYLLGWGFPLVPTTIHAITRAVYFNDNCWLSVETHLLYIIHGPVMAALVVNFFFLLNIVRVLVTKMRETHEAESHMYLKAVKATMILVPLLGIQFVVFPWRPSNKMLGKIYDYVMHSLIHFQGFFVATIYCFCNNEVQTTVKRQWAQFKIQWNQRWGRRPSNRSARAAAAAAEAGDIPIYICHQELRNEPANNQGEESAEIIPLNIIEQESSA
In short: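 cAMP read-out by AlphaScreen after cell lysis; EC50 and % efficacy vs pramlintide from 4-parameter logistic fitting. Agonist stimulation: hCTR2-COS7 stable cells, 15 min, 37° C, 100 µM IBMX, 0.1% casein, Tyrode/HEPES pH 7.4.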

[4] = Assessment of physical stability: fibril formation detected with Thioflavin T (ThT), lag-time; format: physicochemical; settings: 1 mg/ml peptide, 40 µM ThT, FND = Fibrillation not detected
Procedure: Solutions containing (i) 1 mg/ml of test peptide, 40 µM ThT and 50 mM phosphate (Ph) buffer (pH 7.0), (ii) 1 mg/ml of test peptide, 40 µM ThT and 50 mM histidine (His) buffer (pH 7.0), and (iii) 1 mg/ml of test peptide, 40 µM ThT and 50 mM acetate (Ac) buffer (pH 4.0), were loaded in a 96-well black fluorescence plate (clear bottom) in triplicate. Data were collected at fixed intervals of 10 min, each preceded by 300 s of automixing (agitation), over a period of 96 hours at 40° C. Physical stability, expressed as lag-time of fibril formation (in hours), was defined as the intersection between two linear regressions representing the initial stable phase and the growth phase.

Row | SMILES | Chem. stability; 7 days, 40°C pH 4 ([1]; pH 4, 7 days) | Chem. stability; 7 days, 40°C pH 7.5 ([1]; pH 7.5, 7 days) | Food intake inhibition (%) after 48 hours (Sprague Dawley (SD) rats; 48 hours) | Body weight loss (%) after 96 hours (Sprague Dawley (SD) rats; mean ± SEM, 96 hours, n = 8) | Solubility, Acetate buffer pH 4 ([2]; 100 mM acetate buffer pH 4.0) | Solubility, Acetate buffer pH 5 ([2]; 100 mM acetate buffer pH 5.0) | Solubility, Histidine buffer pH 6 ([2]; 100 mM histidine buffer pH 6.0) | Solubility, Histidine buffer pH 7 ([2]; 100 mM histidine buffer pH 7.0) | Solubility, Phosphate buffer pH 6 ([2]; 100 mM phosphate buffer pH 6.0) | Solubility, Phosphate buffer pH 7 ([2]; 100 mM phosphate buffer pH 7.0) | Solubility, Phosphate buffer pH 7.5 ([2]; 100 mM phosphate buffer pH7.5) | EC50 [3] | Fibrillation lag time (hours) pH 4.0 (Ac) ([4]; 50 mM acetate buffer pH 4.0, 96 hours at 40°C) | Fibrillation lag time (hours) pH 7.0 (His) ([4]; 50 mM histidine buffer pH 7.0, 96 hours at 40°C) | Fibrillation lag time (hours) pH 7.0 (Ph) ([4]; 50 mM phosphate buffer pH 7.0, 96 hours at 40°C)
1 | CC[C@H](C)[C@@H](C(=O)N[C@@H](CC(C)C)C(=O)N[C@@H](CO)C(=O)N[C@@H](CO)C(=O)N[C@H](C(=O)N[C@@H](CC(N)=O)C(=O)N[C@H](C(=O)NCC(=O)N[C@@H](CO)C(=O)N[C@@H](CC(N)=O)C(=O)N[C@H](C(=O)N1CCC[C@H]1C(N)=O)[C@@H](C)O)C(C)C)[C@@H](C)O)N(C)C(=O)[C@H](C)NC(=O)CN(C)C(=O)[C@H](Cc1ccccc1)NC(=O)[C@H](CC(N)=O)NC(=O)[C@H](CC(N)=O)NC(=O)[C@@H](CO)NC(=O)[C@H](CO)NC(=O)[C@H](Cc1c[nH]cn1)NC(=O)[C@H](Cc1c[nH]cn1)NC(=O)[C@H](CC(C)C)NC(=O)[C@H](Cc1ccccc1)NC(=O)[C@H](CCC(=O)O)NC(=O)[C@H](C)NC(=O)[C@H](CC(C)C)NC(=O)[C@H](CCCNC(=N)N)NC(=O)[C@H](CCC(N)=O)NC(=O)[C@@H](NC(=O)[C@H](C)NC(=O)[C@@H]1CSSC[C@H](NC(=O)[C@H](CCCNC(=N)N)NC(=O)CC[C@H](NC(=O)CCCCCCCCCCCCCCCCCCC(=O)O)C(=O)O)C(=O)N[C@@H](CC(N)=O)C(=O)N[C@@H]([C@@H](C)O)C(=O)N[C@@H](C)C(=O)N[C@@H]([C@@H](C)O)C(=O)N1)[C@@H](C)O [Compound 31, [19CD]-isoGlu-RC()NTATC()ATQRLAEFLHHS-DSer-NNF-Gly(Me)-A-Ile(Me)-LSSTNVGSNTP-NH2] ({C20 diacid-γGlu}-RCNTATCATQRLAEFLHHS[dS]NNF[Sar]A[NMeI]LSSTNVGSNTP-NH2; disulfide 2-7) | 80 area-% | 66 area-% |  |  |  |  |  |  |  |  |  |  |  |  | 
2 | CC[C@H](C)[C@@H](C(=O)N[C@@H](CC(C)C)C(=O)N[C@@H](CO)C(=O)N[C@@H](CO)C(=O)N[C@H](C(=O)N[C@@H](CC(N)=O)C(=O)N[C@H](C(=O)NCC(=O)N[C@@H](CO)C(=O)N[C@@H](CC(N)=O)C(=O)N[C@H](C(=O)N(C)[C@@H](Cc1ccc(O)cc1)C(N)=O)[C@@H](C)O)C(C)C)[C@@H](C)O)N(C)C(=O)[C@H](C)NC(=O)CN(C)C(=O)[C@H](Cc1ccccc1)NC(=O)[C@H](CC(N)=O)NC(=O)[C@H](CC(N)=O)NC(=O)[C@H](CO)NC(=O)[C@H](CO)NC(=O)[C@H](Cc1c[nH]cn1)NC(=O)[C@H](Cc1c[nH]cn1)NC(=O)[C@H](CC(C)C)NC(=O)[C@H](Cc1ccccc1)NC(=O)[C@H](CCC(=O)O)NC(=O)[C@H](C)NC(=O)[C@H](CC(C)C)NC(=O)[C@H](CCCNC(=N)N)NC(=O)[C@H](CCC(N)=O)NC(=O)[C@@H](NC(=O)[C@H](C)NC(=O)[C@@H]1CSSC[C@H](NC(=O)[C@H](CCCNC(=N)N)NC(=O)CC[C@H](NC(=O)CCCCCCCCCCCCCCCCCCC(=O)O)C(=O)O)C(=O)N[C@@H](CC(N)=O)C(=O)N[C@@H]([C@@H](C)O)C(=O)N[C@@H](C)C(=O)N[C@@H]([C@@H](C)O)C(=O)N1)[C@@H](C)O [Compound 61, [19CD]-isoGlu-RC()NTATC()ATQRLAEFLHHSSNNF-Gly(Me)-A-Ile(Me)-LSSTNVGSNT-Tyr(Me)-NH2] ({C20 diacid-γGlu}-RCNTATCATQRLAEFLHHSSNNF[Sar]A[NMeI]LSSTNVGSNT[NMeY]-NH2; disulfide 2-7) |  |  | 24% | 1 ± 1.6 % | SS (SS indicates solubility ≥ 1mg/ml) | SS (SS indicates solubility ≥ 1mg/ml) | II (II indicates solubility ≤ 1 mg/ml) | II (II indicates solubility ≤ 1 mg/ml) | II (II indicates solubility ≤ 1 mg/ml) | II (II indicates solubility ≤ 1 mg/ml) | II (II indicates solubility ≤ 1 mg/ml) | 0.3 nM | FND | 3 hours | 3 hours
